# Legend:
# [1] = tested on: patients with depressive states; settings: Azoulay, Le Bezu and Leyritz 1956; cited from earlier work
# [2] = tested on: C57B16 mice; experiment: Water maze spatial learning; type: in vivo; settings: i.p. once daily for 7 days; FIG. 6
# Description: The test apparatus consists of a large circular pool (1 m diameter, 80 cm high, temperature 26° C.) with a platform (11 cm diameter) submerged 1.5 cm below the surface. Both the pool and the platform were constructed of black polyvinyl plastic, which offered no intra-maze cues. The experimental room contained several extra-maze visual cues. During training the platform was hidden in the same quadrant 30 cm away from the edge of the maze. There were five trials, each of them beginning with the rat facing the wall of the maze in one of three different locations. The time taken for the rat to find the platform within a 90 s period was recorded. Probe trials where the platform was removed from the maze and the time the animal spent in the target quadrant were also performed. […]
# Finally, drugs inducing neurobehavioural profile are evaluated in the water maze spatial learning paradigm, a robust task of information acquisition and consolidation—a measure of pro-cognitive action. […]
# The influence of Captodiamine on open-field behaviour (FIG. 3), novel object recognition (FIG. 8), forced swim test (FIGS. 10A and 10B) and water maze spatial learning (FIG. 6). […] Values were analysed using a two way ANOVA and Student t-test and those with a p values<0.05 were accepted as significant and where appropriate are indicated with an asterisk.
# [3] = tested on: C57B16 mice; experiment: Pre-pulse inhibition of the startle response; type: in vivo; settings: i.p. once daily for 7 days; FIG. 5
# From the text: An example of one way of testing for PPI: In the prepulse inhibition (PPI) procedure, the rodent is placed in a small chamber and exposed to a brief pulse of noise. The test is used to assess the subject's ability to “gate” or filter environmental information. In the acoustic (startle model) of sensorimotor gating, a weak acoustic stimulus (ie, the prepulse) decreases the reflexive flinching response (startle) produced by a second, more intense, stimulus (the pulse).
# The main three parts of the procedure are prepulse, startle stimulus, and startle reflex. Different prepulse-to-pulse intervals, or lead intervals, are used: 30, 60, 120, 240 and 480 ms. Lead interval counts from the start of prepulse to the start of the pulse. With the interval exceeding 500 ms, prepulse facilitation, such as increased response, is most likely to follow. Burst of white noise is usually used as acoustic startle stimulus. Typical durations are 20 ms for prepulse and 40 ms for pulse. […] Startle response is measured in rodents using the so-called automated “startle chambers” or “stabilimeter chambers”, with detectors recording whole-body reaction. In humans, the movements of oculomotor muscles (“eye-blink reflex” or “eye-blink response” assessed using electromyographic recording of orbicularis oculi muscle and by oculography) could be used as a measure. […]
smiles,measurement,setting,value
"CCCCSc1ccc(C(SCCN(C)C)c2ccccc2)cc1 (stereo not drawn) [Captodiamine, 2-[(4-butylsulfanylphenyl)-phenyl-methyl]sulfanyl-N,N-dimethyl-ethanamin]",clinical usefulness in depressive states resistant to largactil,[1],useful in only one patient
same,water maze spatial learning task performance,[2],significant pro-cognitive action
same,pre-pulse inhibition of startle,[3],no effect

# Source: patent US8461389B2, “Psycho-pharmaceuticals” (University College Dublin, National University of Ireland, …, priority 2008, dated 2013)
